Data on 9 molecules can be found in PubChem BioAssay (NCI).

SMILES strings stand for the structures.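 Cells were grown in 96-well plates and exposed to each compound for 48 hours at five concentrations; endpoints were interpolated linearly between bracketing concentrations, or set to the highest concentration if not reached. GI50 marks 50% less growth. TGI is the concentration that stops growth completely.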

Some test systems named below: CAKI-1 renal; COLO 205 colon; EKVX NSCLC; HT29 colon; LOX IMVI melanoma; M14 melanoma; MALME-3M melanoma; MCF7 breast; NCI-H460 lung; HCC-2998 colon.
What all share (experiment): growth of human tumour cells (NCI), 48 h

For `CN(/N=C/c1ccccc1O)c1ccc2ccccc2n1`, the TGI is more than 100 µM in the test on CAKI-1 renal; more than 100 µM with COLO 205 colon; 54.9 µM in the test on EKVX NSCLC; 90.1 µM with HT29 colon; more than 100 µM in the test with LOX IMVI melanoma; more than 100 µM with M14 melanoma. In addition, the values for the TGI in the test on MALME-3M melanoma, in the test with MCF7 breast and in the test on NCI-H460 lung were 47.8 µM, 30.9 µM and 55 µM, respectively.
`CCn1c(SCC(=O)Nc2cc(C(F)(F)F)ccc2Cl)nc2ccccc2c1=O`: the GI50 with CAKI-1 renal is 24 µM; in the test on COLO 205 colon it was more than 100 µM; with HCC-2998 colon it was more than 100 µM; with HT29 colon, more than 100 µM; in the test with LOX IMVI melanoma, more than 100 µM; with M14 melanoma, 90.7 µM. For the same molecule, the GI50 in the test on MALME-3M melanoma was 34.3 µM; with MCF7 breast, 94.4 µM; in the test on NCI-H460 lung, 30.5 µM. The TGI with CAKI-1 renal, with COLO 205 colon, in the test on HCC-2998 colon, in the test on HT29 colon, in the test on LOX IMVI melanoma and in the test with M14 melanoma was more than 100 µM in each case. For the same molecule, the TGI with MALME-3M melanoma, in the test on MCF7 breast and with NCI-H460 lung was more than 100 µM each time.
Consider `CC[C@H]1CCC/C=C/[C@@H]2C[C@H](O)C[C@H]2[C@H](O)/C=C/C(=O)O1`, for which the GI50 was 0.0444 µM in the test with CAKI-1 renal; 0.0213 µM with COLO 205 colon; 0.0522 µM in the test with EKVX NSCLC; 0.0264 µM in the test with HT29 colon; 0.0251 µM in the test on LOX IMVI melanoma; 0.0376 µM with M14 melanoma. Also, the GI50 is 0.0381 µM in the test with MALME-3M melanoma, 0.0266 µM in the test on MCF7 breast and 0.107 µM in the test on NCI-H460 lung. Besides, the TGI with CAKI-1 renal is more than 100 µM; with COLO 205 colon, 0.0395 µM; in the test on EKVX NSCLC, more than 100 µM; with HT29 colon, 0.405 µM; in the test on LOX IMVI melanoma it was 0.0793 µM; with M14 melanoma, more than 100 µM. For the same molecule, the TGI is 0.102 µM with MCF7 breast and more than 100 µM in the test on NCI-H460 lung.
For `O=c1cc(-c2ccccc2)oc2c1ccc1ccccc12`, the GI50 in the test with CAKI-1 renal is 18 µM; in the test on COLO 205 colon it was 24.2 µM; in the test on HCC-2998 colon it was 56.7 µM; in the test on HT29 colon it was 25.6 µM; in the test on LOX IMVI melanoma, 21.9 µM; in the test on M14 melanoma, 61.1 µM. Besides, the GI50 in the test on MALME-3M melanoma is 29.1 µM; in the test on MCF7 breast, 13.9 µM; in the test on NCI-H460 lung, 28.6 µM. The TGI with CAKI-1 renal, with COLO 205 colon, with HCC-2998 colon, in the test with HT29 colon, with LOX IMVI melanoma and in the test with M14 melanoma was more than 100 µM each time. Also, the TGI was 72.1 µM in the test on MALME-3M melanoma, more than 100 µM in the test on MCF7 breast and more than 100 µM with NCI-H460 lung.
Regarding `CC1(C)CCc2c(c(N=Nc3ccccc3F)c3ccccc3c2O)O1`, the GI50 in the test with CAKI-1 renal is 31.6 µM; in the test with COLO 205 colon it was more than 100 µM; with EKVX NSCLC, more than 100 µM; with HCC-2998 colon it was 22.6 µM; in the test with LOX IMVI melanoma it was 20.9 µM; with M14 melanoma it was more than 100 µM. Besides, the GI50 with MALME-3M melanoma was 34.5 µM; with MCF7 breast it was more than 100 µM; in the test with NCI-H460 lung, 38.3 µM. In addition, the TGI was more than 100 µM in the test on CAKI-1 renal; more than 100 µM in the test on COLO 205 colon; more than 100 µM in the test on EKVX NSCLC; more than 100 µM in the test with HCC-2998 colon; 40.9 µM in the test with LOX IMVI melanoma; more than 100 µM in the test on M14 melanoma. Further, the TGI in the test on MALME-3M melanoma, in the test on MCF7 breast and in the test with NCI-H460 lung was more than 100 µM throughout.
For `CCCCC(OC(=O)c1ccc(N)cc1)C(=O)Nc1nc(CC(=O)OCC)cs1` (centres undefined), the GI50 with CAKI-1 renal was 39.1 µM; in the test on COLO 205 colon, 31.6 µM; with EKVX NSCLC it was 38 µM; in the test with HCC-2998 colon, 67.5 µM; in the test on HT29 colon it was 36.7 µM; in the test with LOX IMVI melanoma, 39 µM. Also, the GI50 with M14 melanoma was 32.8 µM; in the test on MALME-3M melanoma, 30.1 µM; in the test with MCF7 breast, 34.8 µM. The TGI in the test with CAKI-1 renal, with COLO 205 colon, in the test with EKVX NSCLC, in the test with HCC-2998 colon, in the test with HT29 colon and in the test with LOX IMVI melanoma was more than 100 µM throughout. Besides, the TGI with M14 melanoma, with MALME-3M melanoma and with MCF7 breast was more than 100 µM each time.
Regarding `COc1ccc(C2=NN(C(C)=O)C(c3ccc(Oc4ccnc5cc(Cl)ccc45)c(OC)c3)C2)cc1` (centres undefined), the GI50 in the test with CAKI-1 renal is more than 100 µM; in the test with EKVX NSCLC it was 51.7 µM; in the test with HCC-2998 colon, more than 100 µM; in the test with M14 melanoma, 93 µM; in the test with MCF7 breast it was 29.4 µM. The TGI in the test with CAKI-1 renal, in the test on EKVX NSCLC, with HCC-2998 colon, in the test on M14 melanoma and in the test with MCF7 breast was more than 100 µM throughout.
As to `FC(F)(F)c1cc(NC(=S)N2c3ccccc3-n3cccc3C2c2cccnc2)cc(C(F)(F)F)c1` (centres undefined), the GI50 with CAKI-1 renal is 5.36 µM; with COLO 205 colon, 9.07 µM; in the test on EKVX NSCLC it was 9.67 µM; in the test with HCC-2998 colon, 5.1 µM; in the test with HT29 colon it was 12.5 µM; in the test on M14 melanoma, 11.3 µM. Moreover, the figures for the GI50 with MCF7 breast and with NCI-H460 lung were 12.9 µM and 10.5 µM, respectively. Moreover, the TGI is 21.7 µM in the test with CAKI-1 renal; 21.6 µM in the test on COLO 205 colon; 37.8 µM with EKVX NSCLC; 19 µM in the test on HCC-2998 colon; 34.5 µM in the test on HT29 colon; 28.2 µM with M14 melanoma. The TGI in the test with MALME-3M melanoma came to 26.9 µM; in the test with MCF7 breast, 32 µM; in the test on NCI-H460 lung, 23.4 µM.
For `O=C(O)CN1C(=O)CN=C(c2ccccn2)c2cc(Cl)ccc21`, the TGI in the test with CAKI-1 renal, with COLO 205 colon, in the test with EKVX NSCLC, in the test on HT29 colon, in the test with LOX IMVI melanoma and with M14 melanoma was more than 100 µM in each case. Also, the TGI in the test with MALME-3M melanoma, with MCF7 breast and with NCI-H460 lung was more than 100 µM each time.
